Among the data in ChEMBL document CHEMBL4359821, “Identify liver X receptor β modulator building blocks by developing a fluorescence polarization-based competition assay” (Eur J Med Chem, 2019) are Ki, EC50 and Kd values, retold here.

Where only a bound is given, the exact number is not on record here.

For test [1], the target named is T1, Oxysterols receptor LXR-beta (Homo sapiens, UniProt P55055). The experiment in a line: Binding affinity to recombinant human LXRbeta-LBD expressed in Escherichia coli BL21 (DE3) assessed as inhibitory constant incubated for 30 mins by fluorescence polarization binding assay.
T1 sequence (P55055 whole entry, the tested form may be a part): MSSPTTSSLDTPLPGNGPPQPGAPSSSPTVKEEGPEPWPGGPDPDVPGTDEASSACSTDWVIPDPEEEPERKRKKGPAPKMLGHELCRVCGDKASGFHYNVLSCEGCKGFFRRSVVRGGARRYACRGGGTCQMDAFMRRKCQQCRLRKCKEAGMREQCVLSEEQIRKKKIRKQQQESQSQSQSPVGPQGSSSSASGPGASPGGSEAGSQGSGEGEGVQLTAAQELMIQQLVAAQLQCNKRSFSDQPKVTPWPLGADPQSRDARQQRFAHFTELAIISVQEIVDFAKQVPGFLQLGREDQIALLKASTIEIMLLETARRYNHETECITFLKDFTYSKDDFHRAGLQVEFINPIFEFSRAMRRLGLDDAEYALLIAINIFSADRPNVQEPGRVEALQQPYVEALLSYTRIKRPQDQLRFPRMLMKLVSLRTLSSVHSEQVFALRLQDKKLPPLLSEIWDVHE
In test [2] the target is T1, Oxysterols receptor LXR-beta. Put plainly: Agonist activity at recombinant human LXRbeta-LBD expressed in Escherichia coli BL21 (DE3) assessed as peptide D22 recruitment fluorescence polarization binding assay.
Test [3] has the same target. The experiment in a line: Binding affinity to recombinant human LXRbeta-LBD expressed in Escherichia coli BL21 (DE3) assessed as dissociation constant incubated for 30 mins by fluorescence polarization binding assay.

`Oc1ccc(Sc2ccc(O)cc2)cc1`: in test [1], the inhibition constant Ki turned out to be 68 µM. `Oc1cccc(Cl)c1`: the inhibitory constant (Ki) in test [1] is 184 µM. Further, in test [2], the 50% effective concentration (EC50) was found to be 519 µM. For `COC(=O)c1ccc2cc[nH]c2c1`, the inhibition constant Ki in test [1] was found to be 302 µM. Regarding `CCOC(=O)c1ccc(CN(Cc2ccc(-c3cccc(S(C)(=O)=O)c3)cc2)S(=O)(=O)c2c(C)cc(C)cc2C)o1`, the Ki in test [1] was 0.352 µM. Turning to `CCOC(=O)c1cn2nc[nH]c(=O)c2c1C(C)C`, the Ki in test [1] was found to be 140 µM. For the same compound, the 50% effective concentration (EC50) in test [2] came to 19 µM. With `Brc1nn(C2CCCCO2)c2ncccc12` (stereo unspecified), the inhibition constant (Ki) in test [1] came out at 209 µM. For `O=C1Nc2ccc(Br)cc2CO1`, the Ki in test [1] was more than 500 µM.

Turning to `CC(=O)c1c(C)ccc2ccccc12`, the Ki in test [1] is 153 µM. Regarding `COc1ccc(OC)c(Cl)c1`, the Ki in test [1] was 476 µM. Moreover, the EC50 in test [2] worked out at 1030 µM. Regarding `CC(C)(C)OC(=O)N1Cc2cn[nH]c2C1`, the inhibitory constant (Ki) in test [1] worked out at 225 µM. As for `CC(C)[C@@H]1CN(c2ccc(CO)c(S(C)(=O)=O)c2)CCN1c1ncc(COC(=O)CCCCCNC(=S)Nc2ccc3c(c2)C(=O)OC32c3ccc(O)cc3Oc3cc(O)ccc32)c(C(F)(F)F)n1`, in test [3], the Kd is 0.0489 µM. Regarding `O=C(O)Cc1cccc(OCCCN(Cc2cccc(C(F)(F)F)c2Cl)CC(c2ccccc2)c2ccccc2)c1`, in test [1], the Ki was 0.0022 µM. For the same compound, in test [2], the EC50 is 0.289 µM. Regarding `CCCCOC(=O)c1ccc(O)cc1` [BUTYLPARABEN], the Ki in test [1] is 66 µM. For the compound `Fc1ccc(-c2c3cccc(C(F)(F)F)c3nn2Cc2ccc(F)cc2Cl)cc1` [LXR-623], in test [1], the Ki amounted to 0.0142 µM.

As to `Oc1ccc(Cl)cc1` [PARACHLOROPHENOL], the inhibitory constant (Ki) in test [1] was 169 µM. Further, in test [2], the EC50 turned out to be 514 µM. In the case of `N#CC[C@H](C1CCCC1)n1cc(-c2ncnc3[nH]ccc23)cn1` [RUXOLITINIB], the Ki in test [1] amounted to 45 µM.
